PMC6092189 (Nature structural & molecular biology, 2018)

Target: human β-cardiac myosin (Homo sapiens, UniProt P12883)
Experiment: single-molecule harmonic force spectroscopy dose titration
Type: binding

human β-cardiac myosin, sequence (P12883 1-808): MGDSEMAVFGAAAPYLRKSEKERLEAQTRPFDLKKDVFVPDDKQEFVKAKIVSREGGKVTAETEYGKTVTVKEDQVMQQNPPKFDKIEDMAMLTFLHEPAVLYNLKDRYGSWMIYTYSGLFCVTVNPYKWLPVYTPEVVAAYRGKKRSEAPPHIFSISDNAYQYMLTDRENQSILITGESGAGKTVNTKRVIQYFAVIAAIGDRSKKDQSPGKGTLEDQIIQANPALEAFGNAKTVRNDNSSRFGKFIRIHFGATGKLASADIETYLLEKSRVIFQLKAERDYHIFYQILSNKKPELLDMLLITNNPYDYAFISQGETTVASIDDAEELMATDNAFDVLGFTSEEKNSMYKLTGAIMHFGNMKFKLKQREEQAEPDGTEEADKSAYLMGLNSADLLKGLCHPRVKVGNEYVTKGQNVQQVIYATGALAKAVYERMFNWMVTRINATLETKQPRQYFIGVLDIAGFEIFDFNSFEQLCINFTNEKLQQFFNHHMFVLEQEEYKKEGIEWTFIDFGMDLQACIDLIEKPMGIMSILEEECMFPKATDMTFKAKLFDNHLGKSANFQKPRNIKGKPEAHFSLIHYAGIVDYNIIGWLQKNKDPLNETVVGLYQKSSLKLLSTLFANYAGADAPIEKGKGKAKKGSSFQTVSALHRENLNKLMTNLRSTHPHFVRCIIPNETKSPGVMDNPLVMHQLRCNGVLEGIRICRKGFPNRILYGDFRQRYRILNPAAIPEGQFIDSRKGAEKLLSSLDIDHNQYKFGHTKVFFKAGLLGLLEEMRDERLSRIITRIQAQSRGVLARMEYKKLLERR
human β-cardiac myosin, sequence (P08590 2-195 partner): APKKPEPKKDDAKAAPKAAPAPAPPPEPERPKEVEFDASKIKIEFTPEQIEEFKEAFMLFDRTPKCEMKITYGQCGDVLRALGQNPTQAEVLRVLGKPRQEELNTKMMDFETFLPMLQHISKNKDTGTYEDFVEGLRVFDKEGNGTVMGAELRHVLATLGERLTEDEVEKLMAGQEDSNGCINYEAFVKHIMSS

Kd: 310 ± 50 nM
Compound: COC(=O)N1CCN(Cc2cccc(NC(=O)Nc3ccc(C)nc3)c2F)CC1 [OM, omecamtiv mecarbil]
